Experimental data as given in patent publication US6610729B1, “Hydroxamic acid derivatives and medicinal utilization thereof” (Mitsubishi Pharma Corporation, priority 1998, dated 2003).
Where a name gives a salt, the structure may show the parent alone.

Assays:
[1] = tested on: release of TNF α from THP-1 cells; assay: Inhibitory activity of TNF α release from THP-1 cells (LPS, ELISA); type: cell-based; conditions: 3 hr, 37° C., TNF α by ELISA
Method: The inhibitory effect of each compound (compounds of Examples 1, 2, 3, 6, 35, 39 and 44) on the release of TNF α from THP-1 cells which are monocyte cultured cells [see Nature 370, 218-220 (1994)] was investigated.
The THP-1 cells were suspended to a concentration of 1×10 ^6 cells/ml in RPMI1640 medium supplemented with 10% fetal calf serum (FCS) and dispensed by 100 μl. A 2 μg/ml LPS was prepared with RPMI1640 medium supplemented with 10% FCS. Each compound (dissolved in dimethyl sulfoxide) was diluted 500-fold with the LPS solution.
The diluted solutions of these compounds were added to the dispensed cell suspensions by 100 μl and allowed for 3 hr to react under the conditions of 37° C., 5% CO2. After the completion of the reaction, the reaction mixture was centrifuged and the culture supernatant was collected. The TNF α amount was quantitatively measured by ELISA (enzyme-linked immunosorbent assay). The TNF α release inhibitory effect by each compound was calculated from the proportion of released TNF α amount of the compound addition group relative to that of the compound non-addition group.

[2] = Solubility in saline (0.9% aqueous sodium chloride solution) at 25° C.; type: physicochemical; conditions: for solubility: saline or isotonic
Method: The solubility of the Example compounds of the present invention in saline (0.9% aqueous sodium chloride solution) at 25° C. was measured.

[3] = tested on: release of TNF α from LPS treated human whole blood; assay: Inhibitory activity of TNF α release from LPS treated human whole blood (ELISA); type: cell-based; conditions: LPS treated human whole blood diluted 4-fold, 24 hr, 37° C., TNF α by ELISA
Method: The inhibitory effect of each compound (compounds of Examples 2, 6, 7, 10, 11, 37, 147, 231 and 245) on the release of TNF α from LPS treated human whole blood [see: Lymphokine Res 8, 141-146 (1989)] was investigated.
Human whole blood was diluted 4-fold with RPMI1640 medium supplemented with 10% FCS. The diluted blood was dispensed to a 96 multi-well plate by 100 μl and equilibrated under the conditions of 37° C., 5% CO2. LPS (2 μg/ml) was prepared with RPMI1640 medium supplemented with 10% FCS and a culture broth prepared by dissolving each compound (dissolved in dimethyl sulfoxide) in the LPS solution was added by 100 μl/well (final concentrated of dimethyl sulfoxide 0.1%), which was followed by incubation for 24 hr (37° C., 5% CO2). After the incubation, the reaction mixture was centrifuged (1,500 rpm, 5 min). The culture supernatant (40 μl/well) was collected, and TNF α amount in the supernatant was quantitatively measured by ELISA. The TNF α release inhibitory effect by each compound was calculated from the proportion of release TNF α amount of the compound addition group relitive to that of the compound non-addition group.

solubility [2]	IC50 [3]	Solubility, saline [2]	SMILES	further results
> 10 mg/mL			CC(C)C[C@@H](C(=O)N[C@@H](Cc1ccccc1)C(=O)c1ccc(OCCN2CCN(C)CC2)cc1)C(CN1C(=O)c2ccccc2C1=O)C(=O)NO (single isomer, unassigned) [Example 1, 5-Methyl-3(R)-[1(S)-[4-[2-[1-(4-methyl)piperazinyl]ethoxy]benzoyl]-2-phenyl]ethylcarbamoyl-2(R or S)-phthalimidomethylhexanohydroxamic Acid Dihydrochloride]	IC50 ([1]; Homo sapiens): 0.27 µM
			CC(C)C[C@@H](C(=O)N[C@@H](Cc1ccc(NC(=N)N)cc1)C(=O)c1ccco1)C(CN1C(=O)c2ccccc2C1=O)C(=O)NO (single isomer, unassigned) [Example 3, 3(R)-[1(S)-(2-Furyl)carbonyl-2-(4-guanidinophenyl)]ethylcarbamoyl-5-methyl-2(R or S)-phthalimidomethylhexanohydroxamic Acid Hydrochloride]	IC50 ([1]; Homo sapiens): 0.19 µM
> 20 mg/mL			CC(C)C[C@@H](C(=O)N[C@@H](Cc1ccc(OCCN(C)C)cc1)C(=O)c1ccco1)C(CN1C(=O)N(C)C(C)(C)C1=O)C(=O)NO.Cl (single isomer, unassigned) [Example 5, 3(R)-[2-[4-(2-Dimethylaminoethoxy)phenyl]-1(S)-(2-furyl)carbonyl]ethylcarbamoyl-5-methyl-2(R or S)-(2,5-dioxo-3,4,4-trimethyl-1-imidazolidinyl)methylhexanohydroxamic Acid Hydrochloride]	
> 20 mg/mL	2.46 µM		CC(C)C[C@@H](C(=O)N[C@@H](Cc1ccc(S(=O)(=O)[O-])cc1)C(=O)c1ccco1)C(Cc1ccc2ccccc2c1)C(=O)NO.[Na+] (single isomer, unassigned) [Example 7, Sodium Salt of 3(R)-[1(S)-(2-Furyl)carbonyl-2-(4-sulfophenyl)ethylcarbamoyl]-5-methyl-2(R or S)-(2-naphthylmethyl)hexanohydroxamic Acid]	
> 20 mg/mL			CC(C)C[C@@H](C(=O)N[C@@H](Cc1ccc(S(=O)(=O)[O-])cc1)C(=O)c1ccco1)C(Cc1cccc2ccccc12)C(=O)NO.[Na+] (single isomer, unassigned) [Example 8, Sodium Salt of 3(R)-[1(S)-(2-Furyl)carbonyl-2-(4-sulfophenyl)ethylcarbamoyl]-5-methyl-2(R or S)-(1-naphthylmethyl)hexanohydroxamic Acid]	
> 20 mg/mL			CC(C)C[C@@H](C(=O)N[C@@H](Cc1ccc(S(=O)(=O)[O-])cc1)C(=O)c1ccco1)C(Cc1ccccc1)C(=O)NO.[Na+] (single isomer, unassigned) [Example 9, Sodium Salt of 2(R or S)-Benzyl-3(R)-[1(S)-(2-furyl)carbonyl-2-(4-sulfophenyl)ethylcarbamoyl]-5-methylhexanohydroxamic Acid]	
10 mg/mL	1.7 µM		CC(C)C[C@@H](C(=O)N[C@@H](Cc1ccc(S(=O)(=O)[O-])cc1)C(=O)c1ccco1)C(CN1C(=O)c2ccccc2C1=O)C(=O)NO.[Na+] (single isomer, unassigned) [Example 10, Sodium Salt of 3(R)-[1(S)-(2-Furyl)carbonyl-2-(4-sulfophenyl)ethylcarbamoyl]-5-methyl-2(R or S)-phthalimidomethylhexanohydroxamic Acid]	
> 20 mg/mL	1.73 µM		CC(C)C[C@@H](C(=O)N[C@@H](Cc1ccc(S(=O)(=O)[O-])cc1)C(=O)c1ccco1)C(CN1Cc2ccccc2C1=O)C(=O)NO.[Na+] (single isomer, unassigned) [Example 11, Sodium Salt of 3(R)-[1(S)-(2-Furyl)carbonyl-2-(4-sulfophenyl)ethylcarbamoyl]-5-methyl-2(R or S)-(1-oxoisoindolin-2-ylmethyl)hexanohydroxamic Acid]	
			CC(C)C[C@@H](C(=O)N[C@@H](Cc1ccc(OCCN(C)C)cc1)C(=O)c1ccco1)C(CCCc1ccccc1)C(=O)NO (single isomer, unassigned) [Example 44, 3(R)-[2-[4-(2-dimethylaminoethoxy)phenyl]-1(S)-(2-furyl)carbonyl]ethylcarbamoyl-5-methyl-2(R or S)-(3-phenylpropyl)hexanohydroxamic acid hydrochloride]	IC50 [1]: 0.42 µM
		>20 mg/mL	CC(C)C[C@@H](C(=O)N[C@@H](Cc1ccc(OS(=O)(=O)[O-])cc1)C(=O)c1ccco1)C(CN1C(=O)N(C)C(C)(C)C1=O)C(=O)NO.[Na+] (single isomer, unassigned) [Example 84, Sodium Salt of 3(R)-[1(S)-(2-Furyl)carbonyl-2-[4-(hydroxysulfonyloxy)phenyl]]ethylcarbamoyl-5-methyl-2(R or S)-(2,5-dioxo-3,4,4-trimethyl-1-imidazolidinyl)methylhexanohydroxamic Acid]	
		5 mg/mL	CC(C)C[C@@H](C(=O)N[C@H](C(=O)c1ccc(OCCN(C)C)cc1)C(C)(C)C)C(CCCc1ccccc1)C(=O)NO.Cl (single isomer, unassigned) [Example 88, 3(R)-[2,2-dimethyl-1(S)-[4-(2-dimethylaminoethoxy)benzoyl]]propylcarbamoyl-5-methyl-2(R or S)-(3-phenylpropyl)hexanohydroxamic acid hydrochloride]	
	2.29 µM	>20 mg/mL	CC(C)C[C@@H](C(=O)N[C@H](C(=O)c1ccc(OCCN(C)C)cc1)C(C)(C)C)C(CN1C(=O)N(C)C(C)(C)C1=O)C(=O)NO.Cl (single isomer, unassigned) [Example 147, 3(R)-[2,2-Dimethyl-1(S)-[4-(2-dimethylaminoethoxy)benzoyl]]propylcarbamoyl-5-methyl-2(R or S)-(2,5-dioxo-3,4,4-trimethyl-1-imidazolidinyl)methylhexanohydroxamic Acid Hydrochloride]	
	3.74 µM		CC(C)C[C@@H](C(=O)N[C@@H](Cc1ccccc1)C(=O)c1ccc(CO)o1)C(CN1C(=O)N(C)C(C)(C)C1=O)C(=O)NO (single isomer, unassigned) [Example 245, 3(R)-[1(S)-[2-(5-Hydroxymethyl)furyl]carbonyl-2-phenyl]ethylcarbamoyl-5-methyl-2(R or S)-(2,5-dioxo-3,4,4-trimethyl-1-imidazolidinyl)methylhexanohydroxamic Acid]	

SMILES	solubility [2]	IC50 [3]	Solubility, saline [2]	further results
CC(C)C[C@@H](C(=O)N[C@@H](Cc1ccccc1)C(=O)c1ccc(OCCN(C)C)cc1)C(CCCc1ccccc1)C(=O)NO.Cl (single isomer, unassigned) [Example 35, 3(R)-[1(S)-[4-(2-Dimethylaminoethoxy)benzoyl]-2-phenyl]ethylcarbamoyl-5-methyl-2(R or S)-(3-phenylpropyl)hexanohydroxamic Acid Hydrochloride]			>20 mg/mL	IC50 [1]: 0.14 µM
CC(C)C[C@@H](C(=O)N[C@@H](Cc1ccccc1)C(=O)c1ccc(OCCN(C)C)cc1)C(CN1C(=O)N(C)C(C)(C)C1=O)C(=O)NO.Cl (single isomer, unassigned) [Example 37, 3(R)-[1(S)-[4-(2-Dimethylaminoethoxy)benzoyl]-2-phenyl]ethylcarbamoyl-5-methyl-2(R or S)-(2,5-dioxo-3,4,4-trimethyl-1-imidazolidinyl)methylhexanohydroxamic Acid Hydrochloride]		3.47 µM	>20 mg/mL	
